Legend:
[1] = tested on: Plasmodium falciparum; assay: Antiplasmodial activity against chloroquine-resistant ring stage Plasmodium falciparum Dd2 after 72 hrs by SYBR Green 1-based fluorescence assay; type: functional, organism-based; conditions: Dd2, 72 h
[2] = tested on: A2780; assay: Cytotoxicity against human A2780 cells; type: cell-based

| SMILES | IC50 [1] [µM] | IC50 [2] [µM] |
| --- | --- | --- |
| COc1cc(/C=C/C(=O)OCc2cc(O)c3c(c2)C(=O)c2cccc(O)c2C3=O)cc(OC)c1OC | 2.7 |  |
| CC(=O)Oc1ccc(/C=C/C(=O)OCc2cc(O)c3c(c2)C(=O)c2cccc(O)c2C3=O)cc1 | 12 |  |
| O=C(OCc1cc(O)c2c(c1)C(=O)c1cccc(O)c1C2=O)c1ccc(O)cc1 | 26 | > 60 |
| C/C=C/C(=O)OCc1cc(O)c2c(c1)C(=O)c1cccc(O)c1C2=O | 45 |  |
| CC(=O)OCc1cc(O)c2c(c1)C(=O)c1cccc(O)c1C2=O | 42 |  |
| Cc1cc(O)c2c(c1)C(=O)c1ccc(-c3c(C)cc(O)c4c3C(=O)c3cccc(O)c3C4=O)c(O)c1C2=O | 10 | > 60 |
| Cc1cc(O)cc2c1C(=O)c1cc(-c3c(C)cc4c(c3O)C(=O)c3c(O)cccc3C4=O)cc(O)c1C2=O | 10 | > 60 |
| COc1ccc(/C=C/C(=O)OCc2cc(O)c3c(c2)C(=O)c2cccc(O)c2C3=O)cc1 | 5 |  |
| O=C(/C=C/c1ccc(O)cc1)OCc1cc(O)c2c(c1)C(=O)c1cccc(O)c1C2=O | 9 | > 60 |
| O=C(CCc1ccccc1)OCc1cc(O)c2c(c1)C(=O)c1cccc(O)c1C2=O | 36 |  |
| Cc1cc(O)c2c(c1)C(O)(c1ccc3c(c1O)C(=O)c1c(O)cc(C)c(O)c1C3=O)c1cccc(O)c1C2=O (configuration not stated) | 0.2 | 4 |
| COc1cc(C(=O)OCc2cc(O)c3c(c2)C(=O)c2cccc(O)c2C3=O)cc(OC)c1OC | 16 |  |
| C[C@@H]1CC[C@H]2[C@@H](C)C(=O)O[C@@H]3O[C@@]4(C)CC[C@@H]1[C@]32OO4 [ARTEMISININ] | 0.007 |  |
| COc1ccc(/C=C/C(=O)OCc2cc(O)c3c(c2)C(=O)c2cccc(O)c2C3=O)c(OC)c1 | 6 |  |
| COc1ccc(C(=O)OCc2cc(O)c3c(c2)C(=O)c2cccc(O)c2C3=O)cc1OC | 14 |  |
| COc1ccc(OC)c(/C=C/C(=O)OCc2cc(O)c3c(c2)C(=O)c2cccc(O)c2C3=O)c1 | 9 |  |
| Cc1cc(O)c2c(c1)C(=O)c1ccc(C3(O)c4cccc(O)c4C(=O)c4c(O)cc(C)cc43)c(O)c1C2=O (configuration not stated) | 0.4 | 6 |
| CC(=O)Oc1ccc(C(=O)OCc2cc(O)c3c(c2)C(=O)c2cccc(O)c2C3=O)cc1 | 30 |  |
| COc1cc(O)c(-c2c(C)cc(O)c3c2C(=O)c2cccc(O)c2C3=O)c(O)c1C(C)=O [KNIPHOLONE] | 1.1 | 8 |
| O=C1c2cccc(O)c2C(=O)c2c(O)cc(CO)cc21 [ALOE-EMODIN] | 55 | 26 |
| O=C(/C=C/c1ccc2c(c1)OCO2)OCc1cc(O)c2c(c1)C(=O)c1cccc(O)c1C2=O | 1.9 |  |
| COc1cccc(/C=C/C(=O)OCc2cc(O)c3c(c2)C(=O)c2cccc(O)c2C3=O)c1OC | 8 |  |
| COc1cc(/C=C/C(=O)OCc2cc(O)c3c(c2)C(=O)c2cccc(O)c2C3=O)cc(OC)c1 | 2.5 |  |
| Cc1cc(O)c2c(c1)C(=O)c1cccc(O)c1C2=O [CHRYSOPHANOL] | 58 | > 60 |
| COc1ccc(C(=O)OCc2cc(O)c3c(c2)C(=O)c2cccc(O)c2C3=O)cc1 | 22 |  |
| COc1ccc(/C=C/C(=O)OCc2cc(O)c3c(c2)C(=O)c2cccc(O)c2C3=O)cc1OC | 1.3 |  |
| O=C(OCc1cc(O)c2c(c1)C(=O)c1cccc(O)c1C2=O)c1ccccc1 | 31 |  |
| O=C(/C=C/c1ccccc1)OCc1cc(O)c2c(c1)C(=O)c1cccc(O)c1C2=O | 18 |  |
